Patent publication US10760110B2, “Antibiotic testing and screening system” (priority 2017, dated 2020)
In brackets after ≈: the same amount, converted by molar mass. Read-outs that look alike come from different tables or passages of the source.

What was measured:
[1] = test system: K. pneumoniae NVT1001 strains with aminoglycoside resistance plasmids; assay: Etest MIC of aminoglycosides, aminoglycoside-modifying enzyme or 16S rRNA methylase (Table 13); type: cell-based, Klebsiella pneumoniae
Experimental: DNA fragments of the resistance genes along with their flanking regions were amplified from clinical plasmids via PCR with specific primer pairs. The resulting PCR fragments were digested and then cloned into the plasmid pACYC177 or pACYC184. The resulting plasmids were then transformed into K. pneumoniae strain NVT1001 via electroporation. The recombinant bacteria were plated onto LB agar plates containing kanamycin (50 mg/L) or chloramphenicol (50 mg/L), and the presence of the cloned gene was confirmed via PCR and DNA sequencing.
(§1) The MICs of antibiotics were determined using the Etest (Biodisk AB, Sweden) according to the manufacturer's instructions. The MICs from the Etest, which fall between standard two-fold dilutions, were rounded up to the next highest two-fold value. The MICs of ceftazidime and cefotaxime against K. pneumoniae NVT1001 harbouring the pACYC177 plasmid with blaOXA-48 were further determined using a broth microdilution test according to the recommendations of the CLSI,^25 and the results were interpreted according to the breakpoints established by the CLSI in 2017.^25 Meanwhile, due to the lack of CLSI breakpoints in 2016 and 2017, the results for cephalothin were interpreted according to the breakpoints established by the CLSI in 2015,^26 and the results for moxifloxacin were interpreted according to the breakpoints established by the EUCAST in 2017.^27

[2] = test system: A. baumannii KW1 strains with aminoglycoside resistance plasmids; assay: Etest MIC of aminoglycosides, aminoglycoside-modifying enzyme or 16S rRNA methylase (Table 19); type: cell-based, Acinetobacter baumannii
Experimental: (§2) DNA fragments of the resistance genes along with their flanking regions were amplified from clinical plasmids via PCR with specific primer pairs. The resulting PCR fragments were digested and then cloned into the plasmid pYMAb5 or pYMAb5Tc. The resulting plasmids were then transformed into A. baumannii KW1 via electroporation.
as §1

[3] = test system: K. pneumoniae NVT1001 and its ΔompK35/36 and/or ΔramR mutants; assay: Etest MIC, OmpK35/36 loss and AcrAB-TolC overexpression (ΔramR) strains (Table 6); type: cell-based, Klebsiella pneumoniae; details: Klebsiella pneumoniae
Experimental: as §1

[4] = test system: A. baumannii KW1 strains with β-lactamase plasmids; assay: Etest MIC of β-lactams, extended-spectrum β-lactamase, AmpC β-lactamase or carbapenemase (Table 18); type: cell-based, Acinetobacter baumannii
Experimental: as §2, §1

[5] = NVT1001, no supplemental plasmid
[6] = NVT1001 with AAC(3)-IId on pACYC184
[7] = NVT1001 with AAC(3)-IVa on pACYC184
[8] = NVT1001 with AAC(6′)-Ib-cr on pACYC184
[9] = NVT1001 with ANT(2″)-Ia on pACYC184
[10] = NVT1001 with ANT(3″)-Ia on pACYC184
[11] = NVT1001 with APH(3′)-IIa on pACYC184
[12] = NVT1001 with APH(3′)-Ia on pACYC184
[13] = NVT1001 with StrA-StrB on pACYC184
[14] = KW1 with AAC(3)-IIa on pYMAb5Tc
[15] = KW1 with ANT(2”)-Ia on pYMAb5Tc
[16] = KW1 with ANT(3”)-Ia on pYMAb5Tc
[17] = KW1 with APH(3')-Ia on pYMAb5Tc
[18] = KW1 with APH(3')-VIa on pYMAb5Tc
[19] = KW1 with shuttle vector pYMAb5Tc

| SMILES | MIC [1, 5] | MIC [1, 6] | MIC [1, 7] | MIC [1, 8] | MIC [1, 9] | MIC [1, 10] | MIC [1, 11] | MIC [1, 12] | MIC ([1]; NVT1001 with ArmA on pACYC184) | MIC ([1]; NVT1001 with RmtB on pACYC184) | MIC [1, 13] | MIC ([2]; KW1, no supplemental plasmid) | MIC [2, 14] | MIC [2, 15] | MIC [2, 16] | MIC [2, 17] | MIC [2, 18] | MIC ([2]; KW1 with ArmA on pYMAb5Tc) | MIC [2, 19] | MIC ([4]; KW1, no supplemental plasmid) | also measured |
| --- | --- | --- | --- | --- | --- | --- | --- | --- | --- | --- | --- | --- | --- | --- | --- | --- | --- | --- | --- | --- | --- |
| NC[C@@H]1O[C@@H](O[C@H]2[C@H](O)[C@@H](O[C@H]3O[C@H](CO)[C@@H](O)[C@H](N)[C@H]3O)[C@H](N)C[C@@H]2N)[C@@H](O)[C@H](O)[C@H]1O [KAN] | 2 µg/mL | 4 µg/mL | 8 µg/mL | 32 µg/mL | >256 µg/mL | 2 µg/mL | >256 µg/mL | >256 µg/mL | >256 µg/mL | >256 µg/mL | 2 µg/mL | 2 µg/mL | 2 µg/mL | 4 µg/mL | 2 µg/mL | 16 µg/mL | 16 µg/mL | >256 µg/mL | 2 µg/mL | – | – |
| NC[C@H]1O[C@H](O[C@H]2[C@H](O)[C@@H](O[C@H]3O[C@H](CO)[C@@H](O)[C@H](N)[C@H]3O)[C@H](N)C[C@@H]2N)[C@H](N)C[C@@H]1O [TOB] | 0.5 µg/mL | 4 µg/mL | >256 µg/mL | 8 µg/mL | 64 µg/mL | 0.5 µg/mL | 0.5 µg/mL | 1 µg/mL | >256 µg/mL | >256 µg/mL | 0.5 µg/mL | 0.5 µg/mL | 0.5 µg/mL | 2 µg/mL | 0.5 µg/mL | 0.5 µg/mL | 0.5 µg/mL | >256 µg/mL | 0.5 µg/mL | – | – |
| CN[C@@H]1[C@H](O)[C@H](NC)[C@H]2O[C@@]3(O)C(=O)C[C@@H](C)O[C@H]3O[C@@H]2[C@H]1O [SPT] | 16 µg/mL | 16 µg/mL | 16 µg/mL | 16 µg/mL | 16 µg/mL | >1024 µg/mL | 16 µg/mL | 16 µg/mL | 16 µg/mL | 16 µg/mL | 16 µg/mL | 24 µg/mL | 24 µg/mL | 24 µg/mL | 192 µg/mL | 24 µg/mL | 24 µg/mL | 24 µg/mL | 24 µg/mL | – | – |
| CCN[C@@H]1C[C@H](N)[C@@H](O[C@H]2OC(CN)=CC[C@H]2N)[C@H](O)[C@H]1O[C@H]1OC[C@](C)(O)[C@H](NC)[C@H]1O [Netilmicin] | – | – | – | – | – | – | – | – | – | – | – | – | – | – | – | – | – | – | – | – | MIC ([3]; WT, NVT1001, read-out: MIC): 0.5 µg/mL (≈ 1.05 µM); MIC ([3]; Δ35, ΔompK35 mutant): 0.5 µg/mL (≈ 1.05 µM); MIC ([3]; Δ35/36, ΔompK35/36 mutant): 0.5 µg/mL (≈ 1.05 µM); MIC ([3]; Δ36, ΔompK36 mutant): 0.5 µg/mL (≈ 1.05 µM); MIC ([3]; ΔramR mutant): 0.5 µg/mL (≈ 1.05 µM); MIC ([3]; ΔramRΔ35, ΔramRΔompK35 mutant): 0.25 µg/mL (≈ 0.526 µM); MIC ([3]; ΔramRΔ35/36, ΔramRΔompK35/36 mutant): 0.5 µg/mL (≈ 1.05 µM); MIC ([3]; ΔramRΔ36, ΔramRΔompK36 mutant): 0.5 µg/mL (≈ 1.05 µM); effects on the MIC ([2]; production of aminoglycoside-modifying enzymes): no increase effects |
| CCN1CCN(C(=O)N[C@@H](C(=O)N[C@@H]2C(=O)N3[C@@H]2SC(C)(C)[C@@H]3C(=O)O)c2ccccc2)C(=O)C1=O [PP] | – | – | – | – | – | – | – | – | – | – | – | – | – | – | – | – | – | – | – | 12 µg/mL | MIC ([4]; KW1 with ADC-30 on pYMAb5): >256 µg/mL; MIC ([4]; KW1 with CTX-M-15 on pYMAb5): >256 µg/mL; MIC ([4]; KW1 with IMP-1 on pYMAb5): 16 µg/mL; MIC ([4]; KW1 with NDM-1 on pYMAb5): >256 µg/mL; MIC ([4]; KW1 with OXA-23 on pYMAb5): >256 µg/mL; MIC ([4]; KW1 with OXA-58 on pYMAb5): 128 µg/mL; MIC ([4]; KW1 with OXA-66 on pYMAb5): 64 µg/mL; MIC ([4]; KW1 with OXA-72 on pYMAb5): >256 µg/mL; MIC ([4]; KW1 with VEB-3 on pYMAb5): 12 µg/mL; MIC ([4]; KW1 with VIM-1 on pYMAb5): >256 µg/mL; MIC ([4]; KW1 with shuttle vector pYMAb5): 12 µg/mL |
| C[C@@H](O)[C@H]1C(=O)N2C(C(=O)O)=C(S[C@@H]3CN[C@H](C(=O)Nc4cccc(C(=O)O)c4)C3)[C@H](C)[C@H]12 [ETP] | – | – | – | – | – | – | – | – | – | – | – | – | – | – | – | – | – | – | – | 3 µg/mL | MIC ([4]; KW1 with ADC-30 on pYMAb5): >32 µg/mL; MIC ([4]; KW1 with CTX-M-15 on pYMAb5): 12 µg/mL; MIC ([4]; KW1 with IMP-1 on pYMAb5): >32 µg/mL; MIC ([4]; KW1 with NDM-1 on pYMAb5): >32 µg/mL; MIC ([4]; KW1 with OXA-23 on pYMAb5): >32 µg/mL; MIC ([4]; KW1 with OXA-58 on pYMAb5): >32 µg/mL; MIC ([4]; KW1 with OXA-66 on pYMAb5): >32 µg/mL; MIC ([4]; KW1 with OXA-72 on pYMAb5): >32 µg/mL; MIC ([4]; KW1 with VEB-3 on pYMAb5): 3 µg/mL; MIC ([4]; KW1 with VIM-1 on pYMAb5): >32 µg/mL; MIC ([4]; KW1 with shuttle vector pYMAb5): 3 µg/mL |
| CCN[C@@H]1C[C@H](N)[C@@H](O[C@H]2OC(CN)=CC[C@H]2N)[C@H](O)[C@H]1O[C@H]1OC[C@](C)(O)[C@H](NC)[C@H]1O [NET] | 0.5 µg/mL | 4 µg/mL | 64 µg/mL | 8 µg/mL | 1 µg/mL | 0.5 µg/mL | 0.5 µg/mL | 0.5 µg/mL | >256 µg/mL | >256 µg/mL | 0.5 µg/mL | 1.5 µg/mL | 1.5 µg/mL | 1.5 µg/mL | 1.5 µg/mL | 1.5 µg/mL | 1.5 µg/mL | >256 µg/mL | 1.5 µg/mL | – | – |
| C[C@@H](O)[C@H]1C(=O)N2C(C(=O)O)=C(S[C@@H]3CN[C@H](CNS(N)(=O)=O)C3)[C@H](C)[C@H]12 [DOR] | – | – | – | – | – | – | – | – | – | – | – | – | – | – | – | – | – | – | – | 0.38 µg/mL | MIC ([4]; KW1 with ADC-30 on pYMAb5): 4 µg/mL; MIC ([4]; KW1 with CTX-M-15 on pYMAb5): 1.5 µg/mL; MIC ([4]; KW1 with IMP-1 on pYMAb5): 16 µg/mL; MIC ([4]; KW1 with NDM-1 on pYMAb5): >32 µg/mL; MIC ([4]; KW1 with OXA-23 on pYMAb5): >32 µg/mL; MIC ([4]; KW1 with OXA-58 on pYMAb5): 6 µg/mL; MIC ([4]; KW1 with OXA-66 on pYMAb5): 8 µg/mL; MIC ([4]; KW1 with OXA-72 on pYMAb5): >32 µg/mL; MIC ([4]; KW1 with VEB-3 on pYMAb5): 0.38 µg/mL; MIC ([4]; KW1 with VIM-1 on pYMAb5): >32 µg/mL; MIC ([4]; KW1 with shuttle vector pYMAb5): 0.38 µg/mL |
| C[C@H]1[C@H](NC(=O)/C(=N\OC(C)(C)C(=O)O)c2csc(N)n2)C(=O)N1S(=O)(=O)O [ATM] | – | – | – | – | – | – | – | – | – | – | – | – | – | – | – | – | – | – | – | 16 µg/mL | MIC ([4]; KW1 with ADC-30 on pYMAb5): 64 µg/mL; MIC ([4]; KW1 with CTX-M-15 on pYMAb5): >256 µg/mL; MIC ([4]; KW1 with IMP-1 on pYMAb5): 16 µg/mL; MIC ([4]; KW1 with NDM-1 on pYMAb5): 12 µg/mL; MIC ([4]; KW1 with OXA-23 on pYMAb5): 16 µg/mL; MIC ([4]; KW1 with OXA-58 on pYMAb5): 16 µg/mL; MIC ([4]; KW1 with OXA-66 on pYMAb5): 12 µg/mL; MIC ([4]; KW1 with OXA-72 on pYMAb5): 16 µg/mL; MIC ([4]; KW1 with VEB-3 on pYMAb5): >256 µg/mL; MIC ([4]; KW1 with VIM-1 on pYMAb5): 12 µg/mL; MIC ([4]; KW1 with shuttle vector pYMAb5): 12 µg/mL |
